Test results reported in patent publication US10414811B2, “Protease-resistant lipidated GLP-1 analogs” (MEDIMMUNE LIMITED, priority 2015, dated 2019).
Where two headings read alike, the source gives them in different places. Numbered stars: 1 amine (or outer) side, 2 acyl side, 3 side chain; on linkers, the order of the positions; unused ones are H or OH. Square brackets hold non-standard residues; d marks the D form. Side chains are listed from the residue outwards. Peptide text beside a SMILES is read from it. * marks the point of attachment. γGlu = O=C(O)[C@H](CCC(=O)[*:2])N[*:1]; αMeF = C[C@](N)(Cc1ccccc1)C(=O)O; αMeK = C[C@](N)(CCCCN)C(=O)O; Lauroyl = CCCCCCCCCCCC(=O)*; αMeS = C[C@](N)(CO)C(=O)O; AEEA = NCCOCCOCC(=O)O; Aib = CC(C)(N)C(=O)O

How the values were obtained:
Format in all cases: cell-based
[1] = molecular target: T1, human glucagon receptor (GCGR) (Homo sapiens, UniProt P47871); experiment: cAMP assay, human GCGR cells
T1 construct: expressed in transfected cells
T1 sequence (P47871 26-477): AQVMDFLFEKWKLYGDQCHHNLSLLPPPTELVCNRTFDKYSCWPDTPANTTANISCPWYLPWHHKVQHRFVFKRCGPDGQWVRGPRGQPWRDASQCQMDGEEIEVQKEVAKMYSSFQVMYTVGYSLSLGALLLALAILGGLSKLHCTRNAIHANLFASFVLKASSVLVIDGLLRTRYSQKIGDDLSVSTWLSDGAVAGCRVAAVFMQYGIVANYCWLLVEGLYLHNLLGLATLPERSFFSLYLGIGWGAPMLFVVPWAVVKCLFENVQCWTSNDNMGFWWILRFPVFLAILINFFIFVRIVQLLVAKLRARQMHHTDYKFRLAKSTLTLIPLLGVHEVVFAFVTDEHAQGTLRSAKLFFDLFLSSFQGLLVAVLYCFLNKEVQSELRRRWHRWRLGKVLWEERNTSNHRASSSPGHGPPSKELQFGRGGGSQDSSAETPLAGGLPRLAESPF
Procedure, shortened: (§1)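 Peptide-stimulated cAMP measured by two-step HTRF after a 30 min room-temperature incubation with receptor-expressing cells (hGLP-1R, hGIPR at 1×10^5 cells/ml; hGCGR at 2×10^5 cells/ml). Duplicate dilutions; EC50 from 4-parameter logistic fit of % Delta F.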

[2] = molecular target: T2, human glucose-dependent insulinotropic peptide receptor (GIPR) (Homo sapiens, UniProt P48546); experiment: cAMP assay, human GIPR cells
T2 construct: expressed in transfected cells
T2 sequence (P48546 22-466): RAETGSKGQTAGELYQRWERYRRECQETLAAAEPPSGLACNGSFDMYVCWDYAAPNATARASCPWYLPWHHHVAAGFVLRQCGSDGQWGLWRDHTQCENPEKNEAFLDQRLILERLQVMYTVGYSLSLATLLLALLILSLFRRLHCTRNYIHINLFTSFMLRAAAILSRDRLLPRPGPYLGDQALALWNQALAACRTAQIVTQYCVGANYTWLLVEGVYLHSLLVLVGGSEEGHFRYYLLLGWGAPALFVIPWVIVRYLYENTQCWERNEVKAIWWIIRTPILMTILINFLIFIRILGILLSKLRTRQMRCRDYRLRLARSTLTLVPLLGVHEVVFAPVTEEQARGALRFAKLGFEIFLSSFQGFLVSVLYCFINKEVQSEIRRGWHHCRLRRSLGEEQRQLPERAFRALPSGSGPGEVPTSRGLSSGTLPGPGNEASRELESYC
Procedure, shortened: as §1

GLP-1R (INS1e assay) = molecular target: T3, GLP-1R (INS1e assay) (Rattus norvegicus, UniProt P32301); experiment: INS1e assay, cAMP activity at GLP-1R
T3 construct: endogenous in cells; host or cells: INS-1E cells
T3 sequence (P32301 22-463): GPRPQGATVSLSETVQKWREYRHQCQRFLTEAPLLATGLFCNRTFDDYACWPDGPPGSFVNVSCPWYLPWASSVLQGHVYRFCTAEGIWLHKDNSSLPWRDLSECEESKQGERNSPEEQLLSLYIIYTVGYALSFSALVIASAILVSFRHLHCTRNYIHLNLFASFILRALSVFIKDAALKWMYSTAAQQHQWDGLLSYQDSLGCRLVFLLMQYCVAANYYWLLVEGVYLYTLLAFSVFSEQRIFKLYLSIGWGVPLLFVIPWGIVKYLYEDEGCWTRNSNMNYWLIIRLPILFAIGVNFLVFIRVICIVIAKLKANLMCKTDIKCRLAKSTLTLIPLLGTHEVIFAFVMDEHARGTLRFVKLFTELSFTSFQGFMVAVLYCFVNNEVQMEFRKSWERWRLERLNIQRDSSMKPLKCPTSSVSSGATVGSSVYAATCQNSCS
Procedure, shortened: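 cAMP was quantified by two-step HTRF, using anti-cAMP cryptate donor and cAMP-d2 acceptor, each diluted 1/20 in conjugate and lysis buffer. EC50 values of the synthetic peptides were derived from the cAMP readout.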

[3] = molecular target: T4, human GLP-1 receptor (GLP-1R) (Homo sapiens, UniProt P43220); experiment: cAMP assay, human GLP-1R cells
T4 construct: expressed in transfected cells
T4 sequence (P43220 24-463): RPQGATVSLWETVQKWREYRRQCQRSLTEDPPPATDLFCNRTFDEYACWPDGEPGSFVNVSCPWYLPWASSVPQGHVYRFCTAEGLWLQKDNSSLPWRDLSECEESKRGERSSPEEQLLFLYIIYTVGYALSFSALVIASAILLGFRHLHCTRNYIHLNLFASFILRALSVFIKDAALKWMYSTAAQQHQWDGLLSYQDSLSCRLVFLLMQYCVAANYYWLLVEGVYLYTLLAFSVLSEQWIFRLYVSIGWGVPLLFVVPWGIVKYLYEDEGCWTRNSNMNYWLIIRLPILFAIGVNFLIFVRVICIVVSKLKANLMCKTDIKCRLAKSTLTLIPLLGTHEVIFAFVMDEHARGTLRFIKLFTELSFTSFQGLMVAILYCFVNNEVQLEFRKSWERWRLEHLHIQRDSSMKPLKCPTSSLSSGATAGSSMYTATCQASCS
Procedure, shortened: as §1

| EC50 ([1]; tris-lipidated peptides, second replicate, read-out: Primary assay EC50 Gluc-R (n2)) [nM] | EC50 ([2]; tris-lipidated peptides, second replicate, read-out: Primary assay EC50 GIP-R (n2)) [nM] | EC50 (GLP-1R (INS1e assay); tris-lipidated peptides, mean of n1 and n2, read-out: INS1e assay EC50 Mean pM GLP-1R) [pM] | EC50 (GLP-1R (INS1e assay); tris-lipidated peptides, replicate n1, read-out: INS1e assay EC50 GLP-1R n1) [pM] | EC50 (GLP-1R (INS1e assay); tris-lipidated peptides, replicate n2, read-out: INS1e assay EC50 GLP-1R n2) [pM] | EC50 ([3]; tris-lipidated peptides, mean of n1 and n2, read-out: Primary assay EC50 Mean pM GLP-1R) [pM] | EC50 ([3]; tris-lipidated peptides, replicate n1, read-out: Primary assay EC50 GLP-1R n1) [pM] | EC50 ([3]; tris-lipidated peptides, replicate n2, read-out: Primary assay EC50 GLP-1R n2) [pM] | EC50 ([1]; cAMP assay, first determination (n1), read-out: Primary assay EC50 Gluc-R (n1)) [nM] | EC50 ([1]; cAMP assay, second determination (n2), read-out: Primary assay EC50 Gluc-R (n2)) [nM] | EC50 ([2]; cAMP assay, first determination (n1), read-out: Primary assay EC50 GIP-R (n1)) [nM] | EC50 ([2]; cAMP assay, second determination (n2), read-out: Primary assay EC50 GIP-R (n2)) [nM] | EC50 (GLP-1R (INS1e assay); mono-lipidated peptides, mean of n1 and n2, read-out: INS1e assay EC50 Mean pM GLP-1R) [pM] | EC50 (GLP-1R (INS1e assay); mono-lipidated peptides, replicate n1, read-out: INS1e assay EC50 GLP-1R n1) [pM] | EC50 (GLP-1R (INS1e assay); mono-lipidated peptides, replicate n2, read-out: INS1e assay EC50 GLP-1R n2) [pM] | EC50 ([3]; cAMP assay, first determination (n1), read-out: Primary assay EC50 GLP-1R n1) [pM] | SMILES |
| --- | --- | --- | --- | --- | --- | --- | --- | --- | --- | --- | --- | --- | --- | --- | --- | --- |
| 19.8 | 19.8 | 4900 | 6900 | 2890 | 45.4 | 41.8 | 49 | – | – | – | – | – | – | – | – | CCCCCCCCCCCC(=O)N[C@@H](CCC(=O)NCCOCCOCC(=O)NCCOCCOCC(=O)NCCCC[C@H](NC(=O)[C@H](C)NC(=O)[C@@H](NC(=O)[C@H](Cc1ccccc1)NC(=O)[C@H](CCC(=O)O)NC(=O)[C@](C)(CCCCN)NC(=O)[C@H](C)NC(=O)[C@H](CCCCNC(=O)COCCOCCNC(=O)COCCOCCNC(=O)CC[C@H](NC(=O)CCCCCCCCCCC)C(=O)O)NC(=O)[C@H](CCC(=O)O)NC(=O)CNC(=O)[C@H](CCC(=O)O)NC(=O)[C@H](CCCCNC(=O)COCCOCCNC(=O)COCCOCCNC(=O)CC[C@H](NC(=O)CCCCCCCCCCC)C(=O)O)NC(=O)[C@H](Cc1ccc(O)cc1)NC(=O)[C@H](CO)NC(=O)[C@](C)(CO)NC(=O)[C@@H](NC(=O)[C@H](CC(=O)O)NC(=O)[C@H](CO)NC(=O)[C@@H](NC(=O)[C@](C)(Cc1ccccc1)NC(=O)[C@H](CO)NC(=O)CNC(=O)[C@H](CCC(=O)O)NC(=O)C(C)(C)NC(=O)[C@@H](N)Cc1c[nH]cn1)[C@@H](C)O)C(C)C)[C@@H](C)CC)C(=O)N[C@H](C(=O)N[C@H](C(=O)N[C@@H](CCC(=O)O)C(=O)NCC(=O)NCC(N)=O)C(C)C)C(C)C)C(=O)O [compound 469] (H-H[Aib]EGS[αMeF]TSDV[αMeS]SYK([AEEA-AEEA-γGlu-Lauroyl])EGEK([AEEA-AEEA-γGlu-Lauroyl])A[αMeK]EFIAK([AEEA-AEEA-γGlu-Lauroyl])VVEGG-NH2; N-terminus assumed) |
| – | – | – | – | – | – | – | – | ≥ 22 | ≥ 22 | ≥ 22 | ≥ 22 | 122 | 104 | 139 | 4.8 | CC[C@H](C)[C@H](NC(=O)[C@H](Cc1ccccc1)NC(=O)[C@H](CCC(=O)O)NC(=O)[C@H](CCCCN)NC(=O)[C@H](C)NC(=O)[C@H](C)NC(=O)[C@H](CCC(N)=O)NC(=O)CNC(=O)[C@H](CCC(=O)O)NC(=O)[C@H](CC(C)C)NC(=O)[C@H](Cc1ccc(O)cc1)NC(=O)[C@H](CO)NC(=O)[C@H](CO)NC(=O)[C@@H](NC(=O)[C@H](CC(=O)O)NC(=O)[C@H](CO)NC(=O)[C@@H](NC(=O)[C@H](Cc1ccccc1)NC(=O)[C@@H](NC(=O)CNC(=O)[C@H](CCC(=O)O)NC(=O)C(C)(C)NC(=O)[C@@H](N)Cc1c[nH]cn1)[C@@H](C)O)[C@@H](C)O)C(C)C)C(=O)N[C@@H](C)C(=O)N[C@@H](Cc1c[nH]c2ccccc12)C(=O)N[C@@H](CC(C)C)C(=O)N[C@H](C(=O)N[C@@H](CCCCN)C(=O)NCC(=O)N[C@@H](CCCNC(=N)N)C(=O)N[C@@H](CCCCNC(=O)COCCOCCNC(=O)COCCOCCNC(=O)CC[C@H](NC(=O)CCCCCCCCCCCCCCCCC(=O)O)C(=O)O)C(N)=O)C(C)C [compound 6] |
